Test results published in patent publication US20180118756A1, “COMPOSITIONS AND METHODS OF MODULATING SHORT-CHAIN DEHYDROGENASE ACTIVITY” (CASE WESTERN RESERVE UNIVERSITY, priority 2015, published 2018).
Values after ≈ are worked out from the molar mass of the structure shown. Like-named read-outs stand apart in the source and are kept apart here.

How the values were obtained:
recombinant 15-PGDH = biological target: T1, recombinant 15-PGDH (Homo sapiens, UniProt P15428); assay: IC50 for inhibiting enzymatic activity of recombinant 15-PGDH in an in vitro assay; type: biochemical; conditions: recombinant human 15-PGDH at 5 nM; for IC50: in vitro
T1 sequence (P15428 1-266): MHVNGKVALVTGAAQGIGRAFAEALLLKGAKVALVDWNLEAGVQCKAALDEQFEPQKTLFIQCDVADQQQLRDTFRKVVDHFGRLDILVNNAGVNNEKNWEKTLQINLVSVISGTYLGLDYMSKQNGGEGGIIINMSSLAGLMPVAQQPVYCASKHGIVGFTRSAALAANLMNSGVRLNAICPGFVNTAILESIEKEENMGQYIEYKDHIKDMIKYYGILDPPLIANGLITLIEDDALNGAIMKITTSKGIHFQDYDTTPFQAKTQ

[1] = aqueous solubility in pH 7 or pH 4 citrate buffer solution; type: physicochemical; conditions: citrate buffer solution
[2] = Enzyme Inhibitor IC50 (nM) at 5 nM 15-PGDH
[3] = read-out: Enzyme Inhibitor IC50 (nM) at 5 nM 15-PGDH

SMILES	IC50 (recombinant 15-PGDH; [2])	further results
CCCC[S+]([O-])c1sc2nc(-c3cccs3)cc(-c3ccccc3)c2c1O (stereo not drawn) [SW 218399, 2-(butylsulfinyl)-4-phenyl-6-(thiophen-2-yl)thieno[2,3-b]pyridin-3-ol]	135 nM	–
CC(C)[S+]([O-])c1sc2nc(-c3nccs3)cc(-c3cccnc3)c2c1N (stereo not drawn) [SW 208778]	–	solubility ([1]; pH 4, aqueous buffer, pH 4 citrate buffer solution, read-out: pH 4 solubility): 26 µg/mL (≈ 64.9 µM); solubility ([1]; pH 7, aqueous buffer, pH 7 citrate buffer solution, read-out: pH 7 solubility): 9.9 µg/mL (≈ 24.7 µM)
C=CCNC(=O)COc1ccc(-c2cc(-c3nccs3)nc3sc([S+]([O-])CCCC)c(N)c23)cc1 (stereo not drawn) [SW 212835, N-allyl-2-(4-(3-amino-2-(butylsulfinyl)-6-(thiazol-2-yl)thieno[2,3-b]pyridin-4-yl)phenoxy)acetamide]	4.2 nM	–
Nc1c(C(=O)N2CCCCC2)sc2nc(-c3cccs3)cc(-c3ccccc3)c12 [SW 218331, (3-amino-4-phenyl-6-(thiophen-2-yl)thieno[2,3-b]pyridin-2-yl)(piperidin-1-yl)methanone]	41 nM	–
CCCC[S+]([O-])c1sc2nc(-c3nccs3)cc(-c3ocnc3C)c2c1N (stereo not drawn) [SW 217939, 2-(butylsulfinyl)-4-(4-methyloxazol-5-yl)-6-(thiazol-2-yl)thieno[2,3-b]pyridin-3-amine]	4.5 nM	–
CCCC[S+]([O-])c1sc2nc(-c3nccs3)cc(-c3ccc(CNC(=O)CN(C)C)cc3)c2c1N (stereo not drawn) [SW 213210, N-(4-(3-amino-2-(butylsulfinyl)-6-(thiazol-2-yl)thieno[2,3-b]pyridin-4-yl)benzyl)-2-(dimethylamino)acetamide]	5 nM	–
CCCC[S+]([O-])c1sc2nc(-c3nccs3)cc(-c3nccn3CC)c2c1N (stereo not drawn) [SW 218521, 2-(butylsulfinyl)-4-(1-ethyl-1H-imidazol-2-yl)-6-(thiazol-2-yl)thieno[2,3-b]pyridin-3-amine]	2.2 nM	–
CCCC[S+]([O-])c1sc2nc(-c3nccs3)cc(-c3cnc(C)n3C3CC3)c2c1N (stereo not drawn) [SW 218478, 2-(butylsulfinyl)-4-(1-cyclopropyl-2-methyl-1H-imidazol-5-yl)-6-(thiazol-2-yl)thieno[2,3-b]pyridin-3-amine]	2.4 nM	–
Nc1c([S+]([O-])C2CCCCC2)sc2nc(-c3cccs3)cc(-c3ccccc3)c12 (stereo not drawn) [SW 218520, 2-(cyclohexylsulfinyl)-4-phenyl-6-(thiophen-2-yl)thieno[2,3-b]pyridin-3-amine]	3.3 nM	–
CCOC[S+]([O-])c1sc2nc(-c3nccs3)cc(-c3cnc(C)n3C)c2c1N (stereo not drawn) [SW 218398, 4-(1,2-dimethyl-1H-imidazol-5-yl)-2-((ethoxymethyl)sulfinyl)-6-(thiazol-2-yl)thieno[2,3-b]pyridin-3-amine]	9.1 nM	–
CCCC[S+]([O-])c1sc2nc(-c3nccs3)cc(-c3scnc3C)c2c1N (stereo not drawn) [SW 217938, 2-(butylsulfinyl)-4-(4-methylthiazol-5-yl)-6-(thiazol-2-yl)thieno[2,3-b]pyridin-3-amine]	2.1 nM	–
CCCC[S+]([O-])c1sc2nc(-c3nccs3)cc(-c3cocn3)c2c1N (stereo not drawn) [SW 217936, 2-(butylsulfinyl)-4-(oxazol-4-yl)-6-(thiazol-2-yl)thieno[2,3-b]pyridin-3-amine]	2.2 nM	–
CCCC[S@+]([O-])c1sc2nc(-c3nccs3)cc(-c3cncn3C)c2c1N (single isomer, unassigned) [(−)-SW 217986]	–	IC50 (recombinant 15-PGDH; [3]): 765 nM
CCCC[S+]([O-])c1sc2nc(-c3ncc(C)s3)cc(-c3cnc(C)n3C)c2c1N (stereo not drawn) [SW 213208, 2-(butylsulfinyl)-4-(1,2-dimethyl-1H-imidazol-5-yl)-6-(5-methylthiazol-2-yl)thieno[2,3-b]pyridin-3-amine]	7.5 nM	–
Nc1c(S(=O)(=O)N2CCCCC2)sc2nc(-c3cccs3)cc(-c3ccccc3)c12 [SW 218400]	> 100 nM	extent of 15-PGDH inhibition (remark) (recombinant 15-PGDH): incomplete inhibition
CCCC[S+]([O-])c1sc2nc(-c3nccs3)cc(-c3cnc(OC)n3C)c2c1N (stereo not drawn) [SW 213155, 2-(butylsulfinyl)-4-(2-methoxy-1-methyl-1H-imidazol-5-yl)-6-(thiazol-2-yl)thieno[2,3-b]pyridin-3-amine]	19 nM	–
CCCC[S+]([O-])c1sc2nc(-c3nccs3)cc(-c3ccc(CC(=O)OC)cc3)c2c1N (stereo not drawn) [SW 213150, Methyl 2-(4-(3-amino-2-(butylsulfinyl)-6-(thiazol-2-yl)thieno[2,3-b]pyridin-4-yl)phenyl)acetate]	4 nM	–
CCCC[S+]([O-])c1sc2nc(-c3nccs3)cc(-c3ccc(CNC(=O)COC)cc3)c2c1N (stereo not drawn) [SW 213211, N-(4-(3-amino-2-(butylsulfinyl)-6-(thiazol-2-yl)thieno[2,3-b]pyridin-4-yl)benzyl)-2-methoxyacetamide]	2.9 nM	–
CCCC[S+]([O-])c1sc2nc(-c3nccs3)cc(-c3ncn(C)c3C)c2c1N (stereo not drawn) [SW 218477, 2-(butylsulfinyl)-4-(1,5-dimethyl-1H-imidazol-4-yl)-6-(thiazol-2-yl)thieno[2,3-b]pyridin-3-amine]	3.8 nM	–

SMILES	IC50 (recombinant 15-PGDH; [2])	further results
CCCC[S+]([O-])c1sc2nc(-c3cccs3)cc(-c3ccccc3)c2c1NC(=O)OC (stereo not drawn) [SW 218031, methyl (2-(butylsulfinyl)-4-phenyl-6-(thiophen-2-yl)thieno[2,3-b]pyridin-3-yl)carbamate]	1380 nM	–
CCCC[S+]([O-])c1sc2nc(-c3nccs3)cc(-c3cnc(CC)n3C)c2c1N (stereo not drawn) [SW 218476, 2-(butylsulfinyl)-4-(2-ethyl-1-methyl-1H-imidazol-5-yl)-6-(thiazol-2-yl)thieno[2,3-b]pyridin-3-amine]	2 nM	–
COCC[S+]([O-])c1sc2nc(-c3nccs3)nc(-c3ccccc3)c2c1N (stereo not drawn) [SW 217996, 6-((2-methoxyethyl)sulfinyl)-4-phenyl-2-(thiazol-2-yl)thieno[2,3-d]pyrimidin-5-amine]	3.4 nM	–
CCCC[S+]([O-])c1sc2nc(-c3nccs3)cc(-c3ccc(OCCF)cc3)c2c1N (stereo not drawn) [SW 217998, 2-(butylsulfinyl)-4-(4-(2-fluoroethoxy)phenyl)-6-(thiazol-2-yl)thieno[2,3-b]pyridin-3-amine]	3.2 nM	–
CCCC[S+]([O-])c1sc2nc(-c3nccs3)cc(-c3c(C)ncn3C)c2c1N (stereo not drawn) [SW 218475, 2-(butylsulfinyl)-4-(1,4-dimethyl-1H-imidazol-5-yl)-6-(thiazol-2-yl)thieno[2,3-b]pyridin-3-amine]	3.4 nM	–
COCCC[S+]([O-])c1sc2nc(-c3nccs3)nc(-c3ccccc3)c2c1N (stereo not drawn) [SW 217995, 6-((3-methoxypropyl)sulfinyl)-4-phenyl-2-(thiazol-2-yl)thieno[2,3-d]pyrimidin-5-amine]	3 nM	–
CCCNS(=O)(=O)c1sc2nc(-c3cccs3)cc(-c3ccccc3)c2c1N [SW 218332, 3-amino-4-phenyl-N-propyl-6-(thiophen-2-yl)thieno[2,3-b]pyridine-2-sulfonamide]	113 nM	–
Nc1c([S+]([O-])c2ccccc2)sc2nc(-c3nccs3)cc(-c3ccc(OCCO)cc3)c12 (stereo not drawn) [SW 217997, 2-(4-(3-amino-2-(phenylsulfinyl)-6-(thiazol-2-yl)thieno[2,3-b]pyridin-4-yl)phenoxy)ethan-1-ol]	12 nM	–
CCCC[S+]([O-])c1sc2nc(-c3nccs3)cc(-c3nc(C)c(C)n3C)c2c1N (stereo not drawn) [SW 218522, 2-(butylsulfinyl)-6-(thiazol-2-yl)-4-(1,4,5-trimethyl-1H-imidazol-2-yl)thieno[2,3-b]pyridin-3-amine]	2.5 nM	–
CCCC[S@@+]([O-])c1sc2nc(-c3nccs3)cc(-c3cncn3C)c2c1N (single isomer, unassigned) [(+)-SW 217985]	–	IC50 (recombinant 15-PGDH; [3]): 0.9 nM
CCCC[S+]([O-])c1sc2nc(-c3nccs3)cc(-c3ccc(COC(=O)NCCN(C)C)cc3)c2c1N (stereo not drawn) [SW 212834, 4-(3-amino-2-(butylsulfinyl)-6-(thiazol-2-yl)thieno[2,3-b]pyridin-4-yl)benzyl (2-(dimethylamino)ethyl)carbamate]	3.3 nM	–
CCCC[S+]([O-])c1sc2nc(-c3nccs3)cc(-c3ccc(C(=O)NCCO)cc3)c2c1N (stereo not drawn) [SW 212831, 4-(3-amino-2-(butylsulfinyl)-6-(thiazol-2-yl)thieno[2,3-b]pyridin-4-yl)-N-(2-hydroxyethyl)benzamide]	4 nM	–
CCCC[S+]([O-])c1sc2nc(-c3nccs3)cc(-c3nc(C)cs3)c2c1N (stereo not drawn) [SW 217937, 2-(butylsulfinyl)-4-(4-methylthiazol-2-yl)-6-(thiazol-2-yl)thieno[2,3-b]pyridin-3-amine]	1.8 nM	–
CCCC[S+]([O-])c1sc2nc(-c3nccs3)cc(-c3ccc(COCCO)cc3)c2c1N (stereo not drawn) [SW 213153, 2-((4-(3-amino-2-(butylsulfinyl)-6-(thiazol-2-yl)thieno[2,3-b]pyridin-4-yl)benzyl)oxy)ethan-1-ol]	2 nM	–
CCCC[S+]([O-])c1sc2nc(-c3cccs3)cc(-c3ccccc3)c2c1NC(C)=O (stereo not drawn) [SW 218030, N-(2-(butylsulfinyl)-4-phenyl-6-(thiophen-2-yl)thieno[2,3-b]pyridin-3-yl)acetamide]	6890 nM	–
CCCC[S+]([O-])c1sc2nc(-c3nccs3)cc(-c3ccnn3C)c2c1N (stereo not drawn) [SW 217780, 2-(butylsulfinyl)-4-(1-methyl-1H-pyrazol-5-yl)-6-(thiazol-2-yl)thieno[2,3-b]pyridin-3-amine]	3.1 nM	–
CCCC[S+]([O-])c1sc2nc(-c3nccs3)cc(-c3ccc(CNC(=O)NCCO)cc3)c2c1N (stereo not drawn) [SW 213209, 1-(4-(3-amino-2-(butylsulfinyl)-6-(thiazol-2-yl)thieno[2,3-b]pyridin-4-yl)benzyl)-3-(2-hydroxyethyl)urea]	2.8 nM	–
CCCC[S+]([O-])c1sc2nc(-c3nccs3)cc(-c3cnnn3C)c2c1N (stereo not drawn) [SW 217782, 2-(butylsulfinyl)-4-(1-methyl-1H-1,2,3-triazol-5-yl)-6-(thiazol-2-yl)thieno[2,3-b]pyridin-3-amine]	5.4 nM	–
